Measurements: patent US20080114047A1 (priority 2003, published 2008)
Read-outs that look alike come from different tables or passages of the source.

Assays:
[1] = tested on: L. donovani axenic amastigotes; assay: In vitro anti-leishmania activity (IC50 vs. L. donovani axenic amastigotes); format: cell-based; conditions: Leishmania donovani
[2] = tested on: Trypanosoma brucei rhodesiense; assay: Anti-protozoan data: T.b.r. IC50; format: cell-based; conditions: read-out: T.b.r. IC50
Trypanosoma cruzi = assay: Anti-protozoan data: T. cruzi IC50; format: cell-based; conditions: read-out: T. cruzi IC50
Plasmodium falciparum = assay: Anti-protozoan data: P. falcip. IC50; format: cell-based; conditions: read-out: P. falcip. IC50
[3] = Tables VI(a), VI(c), read-out: Leishmania donovani IC50
[4] = axenic amastigotes, Tables I-V, read-out: IC50 vs. L. donovani

| Structure (SMILES) | IC50 [1, 3] [µM] | IC50 ([2]; Tables VI(a), VI(c)) [µM] | IC50 (Trypanosoma cruzi; Tables VI(a), VI(c)) [µM] | IC50 (Plasmodium falciparum; Tables VI(a), VI(c)) [µM] | IC50 (in vitro) [µM] | IC50 [1, 4] [µM] | melting point [°C] | IC50 ([1]; read-out: L. Donovani IC50) [µM] | IC50 [2] [µM] | IC50 (Trypanosoma cruzi) [µM] | IC50 (Plasmodium falciparum) [µM] |
| --- | --- | --- | --- | --- | --- | --- | --- | --- | --- | --- | --- |
| CONC(=N)c1ccc2oc(CCCCc3cc4cc(C(=N)NOC)ccc4o3)cc2c1 [Compound 189, 2-(4-(5-(N-Methoxycarbamimidoyl)benzofuran-2-yl)butyl)-N-methoxybenzofuran-5-carboxamidine] | > 100 | 6.87 | 61.9 | ~2 | 74.3 | – | – | – | – | – | – |
| N=C(NO)c1ccc2oc(CCCc3cc4cc(C(=N)NO)ccc4o3)cc2c1 [Compound 185, 2-(3-(5-(N-Hydroxycarbamimidoyl)benzofuran-2-yl)propyl)-N-hydroxybenzofuran-5-carboxamidine] | > 50 | 4.79 | 9.4 | > 2 | 23.8 | – | – | – | – | – | – |
| CONC(=N)c1ccc2cc(CCCCCc3cc4ccc(C(=N)NOC)cc4o3)oc2c1 [Compound 187, 2-(5-(6-(N-Methoxycarbamimidoyl)benzofuran-2-yl)pentyl)-N-methoxybenzofuran-6-carboxamidine] | > 50 | 13.8 | 38.4 | 9.76 | 34.6 | – | – | – | – | – | – |
| Cl.Cl.c1cc(OCCCOc2ccc(C3=NCCN3)cc2)cc(-c2cc3ccc(C4=NCCN4)cc3o2)c1 [Compound 58, 2-(2-(3-(3-(4-(4,5-Dihydro-1H-imidazol-2-yl)phenoxy)propoxy)phenyl)benzofuran-6-yl)-4,5-dihydro-1H-imidazole dihydrochloride] | 4.73 ± 1.71 | 1.08 | 7.32 | 0.0952 | 10.1 | 4.73 ± 1.71 | 208 to 211 | – | – | – | – |
| N=C(NO)c1ccc2oc(CCCCCc3cc4cc(C(=N)NO)ccc4o3)cc2c1 [Compound 192, 2-(5-(5-(N-Hydroxycarbamimidoyl)benzofuran-2-yl)pentyl)-N-hydroxybenzofuran-5-carboxamidine] | 14.3 ± 6.49 | 5 | 11.9 | > 1.9 | 27 | – | – | – | – | – | – |
| N=C(NO)c1ccc2oc(CCCCc3cc4cc(C(=N)NO)ccc4o3)cc2c1 [Compound 186, 2-(4-(5-(N-Hydroxycarbamimidoyl)benzofuran-2-yl)butyl)-N-hydroxybenzofuran-5-carboxamidine] | > 100 | 4.87 | 152 | > 2 | > 184 | – | – | – | – | – | – |
| CC(C)NC(=N)c1ccc(-c2cc3cc(C(=N)NC(C)C)ccc3o2)cc1 [Compound 164, 2-(4-(N-isopropylcarbamimidoyl)phenyl)-N-isopropylbenzofuran-5-carboxamidine] | – | – | – | – | > 198 | – | – | 1.58 ± 1.09 | 0.125 | > 198 | 0.073 |
| Cl.Cl.c1cc(OCCCCOc2ccc(C3=NCCN3)cc2)cc(-c2cc3ccc(C4=NCCN4)cc3o2)c1 [Compound 61, 2-(2-(3-(4-(4-(4,5-Dihydro-1H-imidazol-2-yl)phenoxy)butoxy)phenyl)benzofuran-6-yl)-4,5-dihydro-1H-imidazole dihydrochloride] | 7.38 ± 2.55 | 2.86 | 8.92 | 0.0976 | 5.84 | 7.38 ± 2.55 | 198 to 200 | – | – | – | – |
| Cl.Cl.c1cc(OCCCCCOc2ccc(C3=NCCN3)cc2)cc(-c2cc3cc(C4=NCCN4)ccc3o2)c1 [Compound 40, 2-(2-(3-(5-(4-(4,5-Dihydro-1H-imidazol-2-yl)phenoxy)pentyloxy)phenyl)benzofuran-5-yl)-4,5-dihydro-1H-imidazole dihydrochloride] | 16.6 ± 6.2 | 0.597 | 7.88 | 0.099 | 2.62 | – | 180 to 182 | – | – | – | – |
| Cl.Cl.c1cc(C2=NCCN2)ccc1OCCCCOc1ccc(-c2cc3ccc(C4=NCCN4)cc3o2)cc1 [Compound 73, 2-(2-(4-(4-(4-(4,5-Dihydro-1H-imidazol-2-yl)phenoxy)butoxy)phenyl)benzofuran-6-yl)-4,5-dihydro-1H-imidazole dihydrochloride] | 13.2 ± 0.86 | 0.942 | 9.82 | 0.0461 | 16.9 | 13.2 ± 0.86 | 306 to 307 | – | – | – | – |
| CC(C)NC(=N)c1ccc(OCCCOc2cccc(-c3cc4ccc(C(=N)NC(C)C)cc4o3)c2)cc1.Cl.Cl [Compound 57, 2-(3-(3-(4-(N-Isopropylcarbamimidoyl)phenoxy)propoxy)phenyl)-N-isopropylbenzofuran-6-carboxamidine dihydrochloride] | 10.6 ± 6.42 | 0.483 | 69.8 | 0.202 | 82.3 | 10.6 ± 6.42 | 213 to 217 | – | – | – | – |
| Cl.Cl.c1cc(C2=NCCN2)ccc1OCCCCCOc1ccc(-c2cc3ccc(C4=NCCN4)cc3o2)cc1 [Compound 76, 2-(2-(4-(5-(4-(4,5-Dihydro-1H-imidazol-2-yl)phenoxy)pentyloxy)phenyl)benzofuran-6-yl)-4,5-dihydro-1H-imidazole dihydrochloride] | 10.4 ± 0.78 | 0.262 | 2.12 | 0.028 | 3.2 | 10.4 ± 0.78 | 212 to 215 | – | – | – | – |
| CONC(=N)c1ccc(-c2cc3cc(C(=N)NOC)ccc3o2)cc1 [Compound 179, 2-(4-(N-Methoxycarbamimidoyl)phenyl)-N-methoxybenzofuran-5-carboxamidine] | – | – | – | – | > 219 | – | – | > 100 | 75.4 | > 219 | 2.5 |
| CONC(=N)c1ccc2oc(CCCc3cc4cc(C(=N)NOC)ccc4o3)cc2c1 [Compound 188, 2-(3-(5-(N-Methoxycarbamimidoyl)benzofuran-2-yl)propyl)-N-methoxybenzofuran-5-carboxamidine] | > 100 | 8.37 | > 157 | > 1.7 | > 157 | – | – | – | – | – | – |
| N=C(NO)c1ccc2cc(CCCCCc3cc4ccc(C(=N)NO)cc4o3)oc2c1 [Compound 184, 2-(5-(6-(N-Hydroxycarbamimidoyl)benzofuran-2-yl)pentyl)-N-hydroxybenzofuran-6-carboxamidine] | 22.2 ± 0.64 | 2.2 | 4.9 | 17.2 | 19.4 | – | – | – | – | – | – |
| CC(C)NC(=N)c1ccc(OCCCCCOc2cccc(-c3cc4ccc(C(=N)NC(C)C)cc4o3)c2)cc1.Cl.Cl [Compound 63, 2-(3-(5-(4-(N-Isopropylcarbamimidoyl)phenoxy)pentyloxy)phenyl)-N-isopropylbenzofuran-6-carboxamidine dihydrochloride] | 8.92 ± 0.71 | 0.911 | 29.7 | 0.294 | 20.1 | 8.92 ± 0.71 | 253 to 255 | – | – | – | – |
| Cl.Cl.c1cc(OCCCCOc2ccc(C3=NCCN3)cc2)cc(-c2cc3cc(C4=NCCN4)ccc3o2)c1 [Compound 37, 2-(2-(3-(4-(4-(4,5-Dihydro-1H-imidazol-2-yl)phenoxy)butoxy)phenyl)benzofuran-5-yl)-4,5-dihydro-1H-imidazole dihydrochloride] | 11.7 ± 0.14 | 1.17 | – | 0.0986 | 9.52 | 11.7 ± 0.14 | 190 to 195 | – | – | – | – |
